Results: patent US20030056232A1, “Animal showing schizophrenia-like abnormality in cognitive behaviors and method of constructing the same” (priority 2000, published 2003)

What was measured:
Format in all cases: in vivo, rat
SD rats [1] = assay: Prepulse inhibition (PPI) of acoustic startle response; details: for prepulse inhibition of EGF administered group under clozapine (EGF CZP) vs cytochrome-C group (Cont CZP): peritoneal, everyday from postnatal day 21; for effect on prepulse inhibition in EGF administered rats: administration for one week, test 23 hours after the final administration, haloperidol 0.3 mg/kg peritoneal (FIG. 4A); for prepulse inhibition, EGF administrated group vs cytochrome-C administered group: EGF 1.75 mg/kg s.c. five times P2-P10, p<0.05
From the text: As the method used to evaluate the sensorimotor and behavioral abnormalities, behavioristic measurements such as prepulse inhibition of startle response, latent inhibition, social interaction, motor activity of the animal, can be mentioned. The prepulse inhibition of startle response is a test to evaluate the ability of perception-motor activity, using the startle response as an index and the startle response can be evaluated in human being and animal in common. In this test, evaluation of attention deficit and abnormality in information processing in brain can be achieved scientifically and objectively. These are considered to be the main factors involved in schizophrenic pathology. […] This test is carried out by measurement of such reaction. Such decrease caused by the prepulse is called “prepulse inhibition”.
(§1) SD rats (Nippon SLC) from postnatal day 2 were used as the test animals. Human recombinant epidermal growth factor (EGF; Higeta Shoyu) and cytochrome-C (Sigma) were dissolved in physiological saline at 70 μL/mL. From postnatal day 2, 25 μL of the solution per 1 g of the body weights of rats (each 1.75 mg/kg) was subcutaneously administered to the rat at the nape of the neck every other day. This operation was repeated five times until postnatal day 10. From postnatal day 21, the startle response and the prepulse inhibition were measured in a startled chamber (San diego Instruments). That is, acoustic stimulus was used as the sensory stimulation to induce startle response. As a prepulse, acoustic stimuli at the intensity 5 to 15 db above the environmental noise (background noise) was given. After 100 milliseconds, a pulse stimuli at the intensity of 120 db was given. The extent of the response obtained under combination of prepulse and 120 db was divided by that obtained under 120 db alone (%) to obtain response ratio. The response ratio was subtracted from 100 and it was designated prepulse inhibition (PPI). The calculation formula used to calculate the prepulse inhibition (PPI) is shown below. [formula]
The effect of 8-Chloro-11-(4-methyl-1-piperazinyl)-5H-dibenzo[b,e][1,4]-diazepine (clozapine: Sigma-Aldrich Fine Chemical Co.Ltd.), recognized to be a therapeutic agent for schizophrenia of human beings, was evaluated on the present model animal to evaluate the adequacy of this model. To the human recombinant EGF administered group and the control group (cytochrome-C administered), clozapine was peritoneally administrated everyday. This administration was performed from postnatal day 21 and chronic abnormality of prepulse inhibition firstly occurs around this period. The prepulse inhibition (PPI) was measured at the postnatal days 30 (P30), 33 (P33) and 37 (P37) (FIG. 3). The result at postnatal day 30 (P30) is shown in FIG. 3A, the result at postnatal day 33 (P33) is shown in FIG. 3B, and the result at postnatal day 37 (P37) is shown in FIG. 3C, respectively.
Moreover, the effect of 4-(4-[p-Chlorophenyl]-4-hydroxypiperidino)-4′-fluorobutyrophenone (Haloperidol: Sigma-Aldrich Fine Chemical Co.Ltd.) was also evaluated. Haloperidol was peritoneally administrated at a dose of 0.3 mg/kg. In FIG. 4, investigation was performed on the four groups of: (1) the control rats group (CON/VEH) with saline administration (as a vehicle), (2) the EGF administrated/saline injected group (EGF/VEH, n=10), (3) the EGF administered/clozapin injected group (EGF/CLP, n=10) and (4) the EGF administered/haloperidol injected group (EGF/HPD, n=6). The administration of saline, clozapine and haloperidol continued for one week. Twenty-three hours after the final administration, the test was performed on the rats of the respective group.

SD rats [2] = assay: Social interaction test (sniffing behavior against unfamiliar partner); details: postnatal day 52; for effect on reduced sniffing behavior in the EGF administrated group: pretreated for three weeks, test 48 hours after the final injection
From the text: Social interaction test is a test that makes an index of the schizophrenic patient's trait that they dislike to make contact with other individuals and keeps away from society, can be made to an index. In general, the sniffling behavior of the animals, usually observed when an animal meets to an unknown individual, is observed. In general, in schizophrenic patients and in schizophrenic model animals, decrease of this behavior has been reported.
Moreover, the abnormality in social interaction of the EGF administrated rats was investigated according to the method of File et al. Using two rats of postnatal day 52, sniffling behavior between two rats was observed and the time of sniffling behavior was used as an index of anxiety. […] In concrete, the sniffling behavior was observed under high light level and unfamiliar condition in the opened space. The both groups of animals are videotaped and sniffing behaviors of the animals against those of the partner was recorded (FIG. 7).
In FIG. 7, the mean times (±SEM) of the sniffing behavior were shown. The investigation was performed on the four groups of (1) the control rats group (CON/VEH) with saline administration as a vehicle, (2) the EGF administrated/saline injected group (EGF/VEH, n=10), (3) the EGF administered/clozapin injected group (EGF/CLOZ, n=10) and (4) the EGF administered/haloperidol injected group (EGF/HAL, n=6). The EGF administrated rats were pretreated by clozapine or haloperidol for three weeks and the test was performed after 48 hours of the final injection on each group. The asterisk marks indicate significant difference as compared with the CON/VEH group (** p<0.01). […] Moreover, the reduced sniffing behavior in the EGF adinistrated group recovered by injection of clozapine (EGF/CLOZ). Meanwhile, halopelidol was not effective to recover the sniffing behavior (EGF/HAL).

SD rats [3] = assay: Motor activity: line crossing (horizonal activity) and rearing (vertical activity); details: for effect on vertical activity of the EGF rat groups: chronic administration for three weeks, tested 48 hours after the final administration, p<0.05 vs EGF/VEH
Method: The locomotor activities of the animals were measured at postnatal days 24 and 52. At postnatal day 24, it was measured using automated Activity Monitor (Neuro Science). At postnatal day 53, using a box having the size of 51×51×80 cm with lines of every 17 cms, the number of line crossing (horizonal activity) and the number of learing counts (vertical activity) within 10 minutes were measured.
The mean numbers (±SEM) of horizonal activity (Line Cross) and vertical activity (Rearing) at postnatal days 24 (P24) and 52 (P52) are shown in FIG. 5. FIG. 5A is the result obtained at postnatal day 24 (n=15, 8 males and 7 females) and FIG. 5B is the result obtained at postnatal day 52 (n=10, 5 males and 5 females). In FIG. 5, the left vertical axis indicates the number of the horizonal activity, while the right vertical axis indicates the number of the vertical activity. The left columns indicate the number of line crossing and the right columns indicate the number of learing counts, respectively. Moreover, the white columns indicate the control group (CON) and the black columns indicate the epidermal EGF administrated group, respectively.
The effect of anti-psychotic medicine on motor activity was also investigated using rats of postnatal day 52. The results investigated on four groups are shown in FIG. 6, namely 1) the control rats group (CON/VEH) with saline administration as a vehicle, (2) the EGF administrated/saline injected group (EGF/VEH, n=10), (3) the EGF administered/clozapin injected group (EGF/CLP, n=10) and (4) the EGF administered/haloperidol injected group (EGF/HAL, n=6). The same numbers of male and female are used in each of the groups. Saline, haloperidol and clozapine were administrated for three weeks, and each group was tested 48 hours after the final administration. Moreover, the asterisk mark (*) and the sharp mark (#) indicate significant difference as compared with the CON/VEH group and EGF/VEH group, respectively (* p<0.05, #p<0.05). […] Meanwhile, administration of these medicines was not effective on the horizonal activity.

SD rats [4] = assay: Startle response to acoustic stimuli of 120 db; details: % in comparison with CON/VEH group (FIG. 4B)
Method: as §1, with “The response ratio was subtracted from 100 and it was designated prepulse inhibition (PPI). The calculation formula used to calculate the prepulse inhibition (PPI) is shown below. [formula]” left out
The results of the prepulse inhibition (FIG. 2A) and the startle response (FIG. 2B) analyzed in accordance to postnatal days are shown in FIG. 2. […]
Moreover, the effect of 4-(4-[p-Chlorophenyl]-4-hydroxypiperidino)-4′-fluorobutyrophenone (Haloperidol: Sigma-Aldrich Fine Chemical Co.Ltd.) was also evaluated. […]

SD rats [5] = assay: Active avoidance response in shuttle box (learning ability)
Method: Furthermore, the learning ability was investigated by active avoidance response. The active avoidance test was performed in a shuttle box, using rats of postnatal day 51-60 (10 trials/day). The conditioning stimulus (CS) adopted here was a stimuli by noise of 80 dB tone and room light for 5 s. When the CS was on, the test animals had to cross the other side of the shuttle box apparatus (avoidance response) in order to turn it off and avoid the appearance of the unconditioned stimulus (US) described below. As the US, an electric shock by conducting 0.6-mA intensity of constant current for 10 s was utilized. Moreover, the test animals were investigated whether they are capable of avoiding the electrical shock by learning.
In FIG. 8, the percentages (±SEM) of the avoidance response are shown. In FIG. 8, the open circle symbols indicate cytochrome-c treated control group (CON: n=10), and the closed triangle symbols indicate EGF-treated group (EGF: n=10), respectively. […] There was also no difference between these two groups in the latency of response or the number of crossings between the two sides of the shuttle box.

[6] = postnatal day 51-60, n=10 per group

Compound | prepulse inhibition of EGF administered group under clozapine (EGF CZP) vs cytochrome-C group (Cont CZP) (SD rats [1]; postnatal day 30, 9th day of clozapine treatment) | prepulse inhibition of EGF administered group under clozapine (EGF CZP) vs cytochrome-C group (Cont CZP) (SD rats [1]; postnatal day 33) | prepulse inhibition of EGF administered group under clozapine (EGF CZP) vs cytochrome-C group (Cont CZP) (SD rats [1]; postnatal day 37) | effect on prepulse inhibition in EGF administered rats (SD rats [1]; prepulse 75 db) | effect on reduced sniffing behavior in the EGF administrated group (SD rats [2]) | effect on vertical activity of the EGF rat groups (SD rats [3]; postnatal day 52) | prepulse inhibition, EGF administrated group vs cytochrome-C administered group (SD rats [1]; postnatal day 30, prepulse intensities 80 db and 85 db) | prepulse inhibition, EGF administrated group vs cytochrome-C administered group (SD rats [1]; postnatal day 33, prepulse intensities 80 db and 85 db) | prepulse inhibition, EGF administrated group vs cytochrome-C administered group (SD rats [1]; postnatal day 37, prepulse intensities 75 db, 80 db and 85 db) | prepulse inhibition and startle response in accordance to postnatal days, EGF group vs cytochrome-C control group (SD rats [1]; prepulse 75 db, postnatal days 21, 28, 30, 37, 46, 51, 60 and 90, n=10 per group (FIG. 2)) | startle response against acoustic stimuli of 120 db, EGF administered groups vs CON/VEH group (SD rats [4]) | sniffing behavior against the unfamiliar partner, EGF/VEH vs control rats (SD rats [2]; high light level, unfamiliar condition, p<0.01) | number of horizonal activity (line cross), EGF group vs cytochrome-C group (CON) (SD rats [3]; postnatal day 24, n=15) | number of vertical activity (rearing), EGF group vs cytochrome-C group (CON) (SD rats [3]; postnatal day 24, n=15) | number of vertical activity (rearing), EGF group vs cytochrome-C group (SD rats [3]; postnatal day 52, n=10, counts within 10 minutes) | learning ability of the EGF-treated rats (SD rats [5]; adult phase (postnatal day 51-60)) | ability to escape from the electric shock, EGF-treated group vs cytochrome-c control group (SD rats [5]; postnatal day 51-60, 10 trials/day, n=10 per group) | latency of response, EGF-treated group vs control group (SD rats [5]; [6]) | number of crossings between the two sides of the shuttle box, EGF-treated group vs control group (SD rats [5]; [6])
CN1CCN(C2=Nc3cc(Cl)ccc3Nc3ccccc32)CC1 [clozapine, 8-Chloro-11-(4-methyl-1-piperazinyl)-5H-dibenzo[b,e][1,4]-diazepine] | significant abnormality in the prepulse inhibition remained | significant difference in prepulse inhibition of the EGF administered group (EGF CZP) disappeared | significant difference in prepulse inhibition of the EGF administered group (EGF CZP) disappeared | significant improvement in prepulse inhibition | recovered | decreased significantly |  |  |  |  |  |  |  |  |  |  |  |  | 
O=C(CCCN1CCC(O)(c2ccc(Cl)cc2)CC1)c1ccc(F)cc1 [haloperidol, 4-(4-[p-Chlorophenyl]-4-hydroxypiperidino)-4′-fluorobutyrophenone] |  |  |  | such effect was not observed | not effective | decreased significantly |  |  |  |  |  |  |  |  |  |  |  |  | 
EGF: Human recombinant epidermal growth factor (Higeta Shoyu), protein factor administered to juvenile rats to prepare the schizophrenic model animal (NSDSECPLSHDGYCLHDGVCMYIEALDKYACNCVVGYIGERCQYRDLKWWELR; Epidermal growth factor; UniProt P01133 971-1023, looked up) |  |  |  |  |  |  | significant decrease | significant decrease | significant decrease | significant difference was recognized after postnatal day 28 | significant stronger | reduced significantly | no significant difference | no significant difference | significant difference was observed | appeared to be normal | no difference | no difference | no difference
